Values after ≈ are worked out from the molar mass of the structure shown. Values joined by “and” are separate entries in the source; they are usually repeats but may differ in a detail not shown here. Equal values may be shown once. Read-outs that look alike come from different tables or passages of the source. Where only a bound is given, the exact number is not on record here.

The subject of test [1] is CaCo-2 (ATCC HTB-37) colon–rectal cancer cell line. Briefly: MTT cytotoxicity assay on CaCo-2 cells. It counts as cell-based, human. The conditions noted are these: for IC50: Homo sapiens, CaCo-2 cell line, MTT; for Percentage of cell growth, antibiotic / Percentage of cell growth, antibiotic + PB4 0.2 µM: CaCo-2. The procedure:
To fully assess the biological activity of the new molecules, they were tested at different concentrations on the CaCo-2 (ATCC HTB-37) colon–rectal cancer cell line. These human cancer cells were exposed to compound solutions ranging in concentration from 100 µM to 0.01 µM. As a reference compound for these assays, we used 5-Fluorouracil (5-FU), a pyrimidine analog from the antimetabolite family.
The MTT assay was also performed for the selected antibiotics to evaluate the effect of their combined treatment with PB4.
To evaluate the effect of the heteroaryl ethylene compounds and the antibiotics, an MTT ([3-(4,5-dimethylthiazol-2-yl)-2,5-diphenyltetrazolium bromide]) assay was performed as previously described. […] Both concentrations were also tested in combination with PB4 0.2 µM. All antibiotics were provided by Thermo Scientific^TM Oxoid^TM, Basingstoke, UK. Twenty-four hours after plating, the cells were treated with 20 μL of each solution. Untreated cells were used as controls. […] The IC50 values were calculated by nonlinear regression analysis using GraphPad Prism 6.0 software.

The test system of test [2] is CaCo2 colon-rectal cancer cell line. Also on record: method as in in-house dataset; Log(IC50) 48h: unit not given here. The conditions noted are these: in-house dataset previously tested by the authors' groups, ref in-house dataset, cited from earlier work; for IC50: 48h.
The subject of another test is S. aureus ATCC29213. The conditions noted are these: QSAR dataset, cited from earlier work.
The subject of the next test is S. aureus ATCC 29213. Briefly: Broth microdilution MIC. Format: cell-based. The conditions noted are these: Staphylococcus aureus. (In general: Broth dilution looks for growth in wells or tubes with falling amounts of substance.)
In test [3] the test system is S. aureus ATCC BAA-1556 USA300. The test can be described thus: Broth microdilution MIC. Format: cell-based, Staphylococcus aureus. The conditions noted are these: for MIC: Staphylococcus aureus, S. aureus ATCC BAA-1556 USA300, substance alone.
Another test relates to S. enterica ATCC 14028. Briefly: Broth microdilution MIC. The conditions noted are these: Salmonella enterica, ATCC14028, substance alone. Format: cell-based.
The test system of a further test is P. aeruginosa ATCC 27853. Briefly: Broth microdilution MIC. It counts as cell-based, Pseudomonas aeruginosa. The conditions noted are these: Pseudomonas aeruginosa, ATCC27853, P. aeruginosa ATCC 27853; substance alone; read-out: MIC.
Another test has as its system E. coli ATCC 25922. Briefly: Broth microdilution MIC. It counts as cell-based. The conditions noted are these: Escherichia coli, ATCC25922, substance alone, read-out: MIC.
The subject of test [4] is K. pneumoniae ATCC 700603. The test can be described thus: Broth microdilution MIC. Format: cell-based, Klebsiella pneumoniae. The conditions noted are these: Klebsiella pneumoniae, ATCC700603, K. pneumoniae ATCC 700603; substance alone; read-out: MIC.
The subject of a further test is S. aureus ATCC 12598. The test can be described thus: Broth microdilution MIC. It counts as cell-based, Staphylococcus aureus. The conditions noted are these: Staphylococcus aureus.
Another test deals with A. baumannii ATCC 17978. The test can be described thus: Broth microdilution MIC. Format: cell-based. The conditions noted are these: Acinetobacter baumannii, ATCC17978, substance alone.
Another test deals with E. faecalis ATCC 29212. The test can be described thus: Broth microdilution MIC. It counts as cell-based, Enterococcus faecalis. The conditions noted are these: for MIC: Enterococcus faecalis.
The mark [5] stands for this setting: Caco-2, 24 h, 24 h of treatment, read-out: IC50 at 24 h.
The mark [6] stands for this setting: Caco-2, 48 h, 48 h of treatment, read-out: IC50 at 48 h.
Where [7] appears, read: in-house database, previously tested, ref Unpublished results.
Setting [8] is: ATCC29213, S. aureus ATCC 29213, substance alone, read-out: MIC.
The mark [9] stands for this setting: ATCC12598, S. aureus ATCC 12598, substance alone, read-out: MIC.
[10] abbreviates: ATCC29212, E. faecalis ATCC 29212, substance alone, read-out: MIC.

By IC50 is commonly meant the point on the concentration scale where inhibition reaches its midpoint. As for `O=c1[nH]cc(F)c(=O)[nH]1` [5-FU, 5-Fluorouracil], the half-inhibitory concentration (IC50) in test [1] (setting [5]) is about 27 µM; in test [1] (setting [6]), 12.9 µM.
As for `C[n+]1c(/C=C/c2ccc(-c3ccc(N4CCCCC4)s3)s2)ccc2ccccc21` [BC1], in [2], the half-inhibitory concentration (IC50) was 20 µM and the “Log(IC50) 48h” value is reported as 1.30.
Regarding `CCCCN(CCCC)c1ccc(-c2ccc(/C=C/c3ccc(C(=O)O)c[n+]3C)s2)s1` [BCG3], in test [2], the IC50 was 8 µM and the “Log(IC50) 48h” value is listed as 0.90.
The MIC is the lowest concentration found to suppress growth. For `CC[n+]1ccc2c(c1)CCC/C2=C\c1ccc(N(C)C)cc1` [BCM3], in test [2], the IC50 is 1.35 µM and the “Log(IC50) 48h” value is given as 0.13. Also, in the test on S. aureus ATCC29213 (setting [7]), the MIC is on record as 64 µg/mL.
With `CN(C)c1ccc(/C=C/c2cccc[n+]2C)cc1` [BCM4], the minimum inhibitory concentration (MIC) in the test with S. aureus ATCC 29213 (setting [8]) is 128 µg/mL and 350 µM; in [3], 64 µg/mL and 175 µM; with S. enterica ATCC 14028, > 128 µg/mL and ≥ 350 µM; with P. aeruginosa ATCC 27853, > 128 µg/mL and ≥ 350 µM; in the test with E. coli ATCC 25922 it was ≥ 128 µg/mL and ≥ 350 µM; in [4] it was > 128 µg/mL and ≥ 350 µM. For the same compound, the minimum inhibitory concentration (MIC) in the test on S. aureus ATCC 12598 (setting [9]) is 64 µg/mL and 175 µM; against A. baumannii ATCC 17978, ≥ 128 µg/mL and ≥ 350 µM; in the test with E. faecalis ATCC 29212 (setting [10]), ≥ 128 µg/mL and ≥ 350 µM. The half-inhibitory concentration (IC50) in test [1] (setting [5]) stood at 0.72 µM; in test [1] (setting [6]), 0.1 µM.
As to `C[n+]1c(/C=C/c2cc(Cl)ccc2O)cccc1/C=C/c1cc(Cl)ccc1O` [BCM12], the MIC with S. aureus ATCC29213 (setting [7]) is over 128 µg/mL.
Turning to `CC[n+]1ccc2c(c1)CCC/C2=C\c1ccccc1O` [BCNAc1], the MIC with S. aureus ATCC29213 (setting [7]) is reported as over 128 µg/mL.
On to `C[n+]1ccccc1/C=C/c1ccc2ccc3c4c2c1C=CC4C=CC3` (centres unmarked) [GC VI 3], for which, in [2], the IC50 is 0.9 µM and the “Log(IC50) 48h” value is listed as -0.0458.
As for `C[n+]1c(/C=C/c2ccc(N(c3ccccc3)c3ccccc3)cc2)ccc2ccccc21` [GC VI 14], in test [2], the IC50 is 4 µM and the “Log(IC50) 48h” value is recorded as 0.602.
With `CN(C)c1ccc(/C=C/c2cc[n+](C)cc2)cc1` [GC VI 17], in test [2], the IC50 is 8 µM and the “Log(IC50) 48h” value is reported as 0.903.
Take `CN(C)c1ccc(/C=C/C=C/c2cc[n+](C)cc2)cc1` [GC VI 45]: in test [2], the IC50 was 16 µM and the “Log(IC50) 48h” value is given as 1.20.
As to `C[n+]1c(/C=C/c2ccnc(-c3cc(/C=C/c4ccc5ccccc5[n+]4C)ccn3)c2)ccc2ccccc21` [GC VI 71], in test [2], the 50% inhibitory concentration (IC50) was 51.2 µM and the “Log(IC50) 48h” value is recorded as 1.71.
In the case of `CCOC(=O)C(C#N)c1ccc(/C=C/c2cc[n+](C)cc2)n1C` (centres unmarked) [GC VII 16], in [2], the IC50 was 70 µM and the “Log(IC50) 48h” value is 1.85.
Take `C[n+]1ccccc1/C=C/c1ccc2ccccc2c1` [GC VII 46]: in [2], the half-maximal inhibitory concentration (IC50) is 5.5 µM and the “Log(IC50) 48h” value is 0.740.
On to `C[n+]1ccccc1/C=C/c1ccc(N(c2ccccc2)c2ccccc2)cc1` [GC VII 47], for which, in test [2], the IC50 is 1 µM and the “Log(IC50) 48h” value was 0.
Take `C[n+]1c(/C=C/c2ccc3ccccc3c2)cccc1/C=C/c1ccc2ccccc2c1` [GC-VII-39]: the MIC is 128 µg/mL and 244 µM with S. aureus ATCC 29213 (setting [8]); > 128 µg/mL and > 244 µM in [3]; ≥ 128 µg/mL and ≥ 244 µM against S. enterica ATCC 14028; ≥ 128 µg/mL and ≥ 244 µM with P. aeruginosa ATCC 27853; at least 128 µg/mL with E. coli ATCC 25922; ≥ 128 µg/mL and ≥ 244 µM in test [4]. The MIC is 32 µg/mL and 60.9 µM in the test on S. aureus ATCC 12598 (setting [9]); ≥ 128 µg/mL and ≥ 244 µM against A. baumannii ATCC 17978; 16 µg/mL and 30.4 µM in the test on E. faecalis ATCC 29212 (setting [10]). For the same compound, the IC50 in test [1] (setting [5]) was 0.23 µM; in [1] (setting [6]), 0.18 µM.
Take `CN(C)c1ccc(/C=C/C=C/c2cccc[n+]2C)cc1` [GF I 25]: in [2], the IC50 was 10 µM and the “Log(IC50) 48h” value was 1.
In the case of `Cn1c(/C=C/c2ccncc2)ccc1/C=C/c1cc[n+](C)cc1` [GF I 30], in test [2], the IC50 was 50 µM and the “Log(IC50) 48h” value was 1.70.
With `Cn1c(/C=C/C2=C(C#N)C(=C(C#N)C#N)OC2(C)C)ccc1/C=C/c1cc[n+](C)cc1` [GF I 32], in test [2], the IC50 was 32 µM and the “Log(IC50) 48h” value is 1.51.
As to `CCCCN(CCCC)c1ccc(-c2ccc(/C=C/c3ccc4ccccc4[n+]3C)s2)s1` [PB2], in the test on S. aureus ATCC29213, the MIC is listed as 4 µg/mL.
For `C[n+]1ccc(/C=C/c2ccc(-c3cc(Cl)ccc3Cl)o2)cc1` [PB6], the MIC in the test on S. aureus ATCC29213 was 4 µg/mL.
In the case of `CC[n+]1ccc2c(c1)CCC/C2=C\c1ccc(-c2ccc(Cl)cc2)o1` [PB7], in the test on S. aureus ATCC29213, the MIC was 4 µg/mL.
As to `CCCCN(CCCC)c1ccc(-c2ccc(/C=C3\CCCc4c[n+](CC)ccc43)s2)s1` [PB8], the MIC with S. aureus ATCC29213 is recorded as 2 µg/mL.
Regarding `CO[C@H]1/C=C/O[C@@]2(C)Oc3c(C)c(O)c4c(O)c(c(/C=N/N5CCN(C)CC5)c(O)c4c3C2=O)NC(=O)/C(C)=C\C=C\[C@H](C)[C@H](O)[C@@H](C)[C@@H](O)[C@@H](C)[C@H](OC(C)=O)[C@@H]1C` [Rifampin, rifampin, reference compound], the MIC against S. aureus ATCC 29213 (ATCC29213) was found to be 0.125 µg/mL (≈ 0.152 µM); in [3], 0.125 µg/mL (≈ 0.152 µM); against S. aureus ATCC 12598 (ATCC12598) it was 0.125 µg/mL (≈ 0.152 µM); against E. faecalis ATCC 29212 (ATCC29212), 0.125 µg/mL (≈ 0.152 µM); with E. faecalis ATCC 29212 (setting [10]) it was 0.25 µg/mL (≈ 0.304 µM). Moreover, the “Reduction of antibiotic MIC by PB4” value is on record as 4 -fold log reduction in test [3] (S. aureus USA 300, antibiotic + PB4 vs antibiotic alone) and 2 -fold log reduction with E. faecalis ATCC 29212 (E. faecalis ATCC 29212, antibiotic + PB4 vs antibiotic alone). For the same compound, the “Percentage of cell growth, antibiotic” value in test [1] (antibiotic alone at MIC for E. faecalis ATCC 29212, 24 h) stood at 133.7%; in [1] (antibiotic alone at MIC for E. faecalis ATCC 29212, 48 h), 282.6%; in test [1] (antibiotic alone at sub-MIC (half-MIC), 24 h), 146.6%; in test [1] (antibiotic alone at sub-MIC (half-MIC), 48 h) it was 265.6%. The “Percentage of cell growth, antibiotic + PB4 0.2 µM” value is on record as 126.9% in test [1] (antibiotic at MIC + PB4 0.2 µM, 24 h); 158.9% in test [1] (antibiotic at MIC + PB4 0.2 µM, 48 h); 130.6% in test [1] (antibiotic at sub-MIC + PB4 0.2 µM, 24 h); 163.7% in test [1] (antibiotic at sub-MIC + PB4 0.2 µM, 48 h). Besides, in the test on E. faecalis ATCC 29212 (E. faecalis ATCC 29212, PB4 at fixed 0.125 μg/mL (0.24 μM), a quarter of an MIC value), the “MIC of antibiotic in combination with PB4” value came to 0.006 µg/mL.
For the compound `CCn1cc(/C=C/c2sc3ccccc3[n+]2CC)c2ccccc21` [SBT, reference compound], the minimum inhibitory concentration (MIC) with S. aureus ATCC29213 was 1 µg/mL.
On to `CCn1cc(/C=C/c2ccc3ccccc3[n+]2CC)c2ccccc21` [SQL, reference compound], for which, in the test on S. aureus ATCC29213, the MIC is on record as 4 µg/mL.

Values taken from article PMC10451629, “Evaluation of the Effects of Heteroaryl Ethylene Molecules in Combination with Antibiotics: A Preliminary Study on Control Strains” (Antibiotics, 2023).
